PMC11750672, “The in vivo metabolic pathway of Deg-AZM and in vitro investigations into the contribution of drug metabolizing enzymes and drug transporters in the drug interactions of Deg-AZM, a clinical-stage new transgelin agonist” (Frontiers in Pharmacology, 2025)

Key:
Test in all cases: CYP inhibition in HLMs
Format in all cases: in vitro ADME
CYP1A2 = target: T1, CYP1A2 (Homo sapiens, UniProt P05177); conditions: HLM 0.5 mg/mL, probe phenacetin, 20 min
T1 construct: from tissue; host or cells: human liver microsomes
T1 sequence (P05177 1-516): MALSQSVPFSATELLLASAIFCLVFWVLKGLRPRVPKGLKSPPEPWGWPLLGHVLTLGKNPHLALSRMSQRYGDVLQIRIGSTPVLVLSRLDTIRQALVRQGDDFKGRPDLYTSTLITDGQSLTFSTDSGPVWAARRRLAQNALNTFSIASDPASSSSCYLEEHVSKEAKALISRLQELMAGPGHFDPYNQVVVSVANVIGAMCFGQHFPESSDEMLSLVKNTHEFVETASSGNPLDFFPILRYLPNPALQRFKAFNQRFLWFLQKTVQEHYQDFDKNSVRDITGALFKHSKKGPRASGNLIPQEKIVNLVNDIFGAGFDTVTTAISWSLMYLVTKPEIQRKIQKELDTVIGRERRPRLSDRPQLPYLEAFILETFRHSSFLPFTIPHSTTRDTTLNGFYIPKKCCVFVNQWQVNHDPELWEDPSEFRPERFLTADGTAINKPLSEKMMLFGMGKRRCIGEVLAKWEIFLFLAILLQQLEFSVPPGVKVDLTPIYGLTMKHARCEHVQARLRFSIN
Procedure: (§1) CYP inhibition potential of Deg-AZM was assessed in NADPH-fortified HLMs (0.5 mg/mL for CYP1A2, CYP2B6, CYP2C19 and CYP2D6 system, 0.035 mg/mL for CYP2C9 system, 0.05 mg/mL for CYP3A4 system, and 0.025 mg/mL for CYP2C8 system) using CYP probe substrates (same as the positive controls in HLM phenotyping assays). Deg-AZM in triplicates (0, 0.2, 0.6, 2.0, 6.0, 20, and 60 μM) was treated with each probe of CYP1A2 (20 min), CYP2B6 (20 min), CYP2C8 (10 min), CYP2C9 (60 min), CYP2C19 (45 min), CYP2D6 (30 min) and CYP3A4 (15 min). Probe substrate metabolites were analyzed by LC-MS/MS and the peak area ratios of analytes to internal standard (Indapamide) were calculated. The activity of the CYP450 enzyme subtype is directly proportional to the concentration of the corresponding probe substrate metabolites. The average of the measured values of each group was calculated, the control tube value was set as 100%, the residual probe substrate metabolites was calculated in the presence of positive inhibitors and Deg-AZM at series concentration. IC50 values were calculated by the dose-response model (nonlinear regression) in GraphPad Prism software.

CYP2B6 = target: T2, CYP2B6 (Homo sapiens, UniProt P20813); conditions: HLM 0.5 mg/mL, probe bupropion, 20 min
T2 construct: from tissue; host or cells: human liver microsomes
T2 sequence (P20813 1-491): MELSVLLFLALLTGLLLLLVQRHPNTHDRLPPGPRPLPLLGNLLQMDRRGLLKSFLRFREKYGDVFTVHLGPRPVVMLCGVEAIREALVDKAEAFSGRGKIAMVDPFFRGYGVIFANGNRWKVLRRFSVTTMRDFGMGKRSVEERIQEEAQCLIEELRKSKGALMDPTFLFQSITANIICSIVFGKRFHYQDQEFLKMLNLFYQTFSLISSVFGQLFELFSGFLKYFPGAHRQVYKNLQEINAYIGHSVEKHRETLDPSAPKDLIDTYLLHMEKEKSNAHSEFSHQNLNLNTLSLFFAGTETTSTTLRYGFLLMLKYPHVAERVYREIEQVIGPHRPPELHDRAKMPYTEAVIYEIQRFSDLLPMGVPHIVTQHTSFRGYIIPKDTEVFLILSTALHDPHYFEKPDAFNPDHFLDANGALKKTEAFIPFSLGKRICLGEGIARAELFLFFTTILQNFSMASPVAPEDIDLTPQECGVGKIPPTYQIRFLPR
Procedure: as §1

CYP2C19 = target: T3, CYP2C19 (Homo sapiens, UniProt P33261); conditions: HLM 0.5 mg/mL, probe S-mephenytoin, 45 min
T3 construct: from tissue; host or cells: human liver microsomes
Procedure: as §1

CYP2C8 = target: T4, CYP2C8 (Homo sapiens, UniProt P10632); conditions: HLM 0.025 mg/mL, probe amodiaquine, 10 min
T4 construct: from tissue; host or cells: human liver microsomes
T4 sequence (P10632 1-490): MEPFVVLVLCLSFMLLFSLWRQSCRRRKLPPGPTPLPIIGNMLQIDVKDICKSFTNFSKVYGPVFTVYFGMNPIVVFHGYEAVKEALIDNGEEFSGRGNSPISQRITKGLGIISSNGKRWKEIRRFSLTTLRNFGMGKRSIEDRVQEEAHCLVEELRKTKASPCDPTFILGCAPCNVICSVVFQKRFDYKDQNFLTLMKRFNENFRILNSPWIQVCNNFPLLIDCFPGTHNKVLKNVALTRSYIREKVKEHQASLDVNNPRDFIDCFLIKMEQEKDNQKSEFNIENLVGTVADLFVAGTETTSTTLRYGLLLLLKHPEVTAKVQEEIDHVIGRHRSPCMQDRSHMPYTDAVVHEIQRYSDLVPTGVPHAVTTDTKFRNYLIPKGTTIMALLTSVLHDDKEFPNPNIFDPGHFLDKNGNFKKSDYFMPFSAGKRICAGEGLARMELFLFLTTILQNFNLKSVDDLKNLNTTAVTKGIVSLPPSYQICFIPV
Procedure: as §1

CYP2C9 = target: T5, CYP2C9 (Homo sapiens, UniProt P11712); conditions: HLM 0.035 mg/mL, probe diclofenac, 60 min
T5 construct: from tissue; host or cells: human liver microsomes
Procedure: as §1

CYP2D6 = target: T6, CYP2D6 (Homo sapiens, UniProt P10635); conditions: HLM 0.5 mg/mL, probe bufuralol, 30 min
T6 construct: from tissue; host or cells: human liver microsomes
Procedure: as §1

CYP3A4 = target: T7, CYP3A4 (Homo sapiens, UniProt P08684); conditions: HLM 0.05 mg/mL, probe midazolam, 15 min
T7 construct: from tissue; host or cells: human liver microsomes
Procedure: as §1

T7 sequence (P08684 whole entry): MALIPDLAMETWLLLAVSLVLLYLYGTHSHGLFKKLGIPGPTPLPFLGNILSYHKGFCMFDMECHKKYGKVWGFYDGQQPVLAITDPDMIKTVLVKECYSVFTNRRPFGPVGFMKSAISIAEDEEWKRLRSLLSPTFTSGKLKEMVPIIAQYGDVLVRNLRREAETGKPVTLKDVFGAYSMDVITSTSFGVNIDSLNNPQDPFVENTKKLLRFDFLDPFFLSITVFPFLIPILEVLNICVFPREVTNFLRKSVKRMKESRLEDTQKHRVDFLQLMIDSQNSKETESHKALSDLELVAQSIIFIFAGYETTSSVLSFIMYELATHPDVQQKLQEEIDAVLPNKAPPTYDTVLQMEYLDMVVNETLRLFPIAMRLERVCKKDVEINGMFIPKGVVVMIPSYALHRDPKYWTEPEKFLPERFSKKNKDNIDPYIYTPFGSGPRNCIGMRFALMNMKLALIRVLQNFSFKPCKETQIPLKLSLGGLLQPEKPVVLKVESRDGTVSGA
T5 sequence (P11712 whole entry): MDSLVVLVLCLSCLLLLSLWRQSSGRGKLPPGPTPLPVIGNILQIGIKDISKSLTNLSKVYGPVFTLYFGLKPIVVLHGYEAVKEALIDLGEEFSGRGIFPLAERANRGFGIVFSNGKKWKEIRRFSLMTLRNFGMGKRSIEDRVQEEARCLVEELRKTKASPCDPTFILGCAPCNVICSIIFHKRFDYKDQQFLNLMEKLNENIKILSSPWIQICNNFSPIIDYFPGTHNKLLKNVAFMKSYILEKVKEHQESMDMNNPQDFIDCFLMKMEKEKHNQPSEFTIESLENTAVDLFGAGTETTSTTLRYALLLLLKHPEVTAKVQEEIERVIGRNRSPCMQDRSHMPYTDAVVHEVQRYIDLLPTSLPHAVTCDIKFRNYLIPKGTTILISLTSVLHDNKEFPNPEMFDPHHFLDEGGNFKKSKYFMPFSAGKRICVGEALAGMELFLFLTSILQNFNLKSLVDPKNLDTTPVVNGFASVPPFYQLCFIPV
T3 sequence (P33261 whole entry): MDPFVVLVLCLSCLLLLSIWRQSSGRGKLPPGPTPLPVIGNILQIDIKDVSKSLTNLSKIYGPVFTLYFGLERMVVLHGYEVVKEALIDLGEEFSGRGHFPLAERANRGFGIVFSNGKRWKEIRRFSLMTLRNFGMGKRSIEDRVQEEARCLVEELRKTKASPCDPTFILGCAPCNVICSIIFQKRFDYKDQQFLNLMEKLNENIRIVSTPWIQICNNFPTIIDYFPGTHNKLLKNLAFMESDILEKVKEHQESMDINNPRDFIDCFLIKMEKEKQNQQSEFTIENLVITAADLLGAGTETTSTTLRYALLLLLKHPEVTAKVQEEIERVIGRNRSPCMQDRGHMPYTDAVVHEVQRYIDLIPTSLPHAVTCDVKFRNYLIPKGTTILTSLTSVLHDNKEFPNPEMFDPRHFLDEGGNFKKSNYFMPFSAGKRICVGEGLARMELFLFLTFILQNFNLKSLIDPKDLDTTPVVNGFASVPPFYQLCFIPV
T6 sequence (P10635 whole entry): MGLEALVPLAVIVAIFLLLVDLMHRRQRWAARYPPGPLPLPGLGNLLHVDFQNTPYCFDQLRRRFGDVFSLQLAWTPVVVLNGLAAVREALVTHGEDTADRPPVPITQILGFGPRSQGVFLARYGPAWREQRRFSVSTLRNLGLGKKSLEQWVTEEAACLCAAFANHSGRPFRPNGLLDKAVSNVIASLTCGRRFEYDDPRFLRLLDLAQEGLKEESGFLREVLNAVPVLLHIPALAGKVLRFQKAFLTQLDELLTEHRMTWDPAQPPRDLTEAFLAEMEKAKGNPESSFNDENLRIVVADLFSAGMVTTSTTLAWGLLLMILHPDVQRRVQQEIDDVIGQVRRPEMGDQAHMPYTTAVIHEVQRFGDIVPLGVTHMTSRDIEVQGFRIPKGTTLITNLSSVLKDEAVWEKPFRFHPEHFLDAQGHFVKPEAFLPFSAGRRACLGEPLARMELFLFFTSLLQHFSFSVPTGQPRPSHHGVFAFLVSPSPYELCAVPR

- IC50 (CYP1A2): > 60 µM
- IC50 (CYP2B6): 8.97 µM
- IC50 (CYP2C19): > 60 µM
- IC50 (CYP2C8): > 60 µM
- IC50 (CYP2C9): > 60 µM
- IC50 (CYP2D6): 7.89 µM
- IC50 (CYP3A4): > 60 µM
Compound: CCC1OC(=O)C(C)C(O)C(C)C(O)C(C)(O)CC(C)CN(C)C(C)C(O)C1(C)O (stereo not shown) [Deg-AZM, Deglycosylated azithromycin]
